Source: patent US10822376B2, “Biologically active peptides” (Baxalta Incorporated, priority 2008, dated 2020)

Assays:
[1] = in vitro; settings: human, pH 7.4
[2] = molecular target: mouse serum albumin (Mus musculus, UniProt P07724); experiment: in vitro; settings: pH 7.4
[3] = system: FVIII−/− (E17) mice; experiment: Tail clip assay in FVIII−/− mice (blood loss, survival)
Method: Groups of mice, typically 8-16 male and female exon 17 FVIII knockout mice with severe hemorrhagic diathesis, receive a single i.v. (tail vein), i.p. or s.c. bolus injection (10 ml/kg body weight). Two minutes before tail clip, animals are anesthetized by an i.p. application of 100 mg/kg ketamine and 5 mg/kg xylazine. Five minutes after i.v. and 60 minutes after i.p. or s.c. peptide or peptide derivative administration 0.5 cm of the tail tip is ablated. Blood dropping from the wound is collected in tubes containing 5.0 ml 0.04% NH3 for defined time periods, such as 0-2 minutes, 2-4 minutes, 4-6 minutes, 6-8, 8-10, 10-12, 12-14, 14-16, 16-20, 20-24, 24-28, 28-32, 32-42, 42-52 and 52-62 minutes. Blood cells in each tube are disrupted and hemoglobin is extracted by a three hour incubation period at room temperature followed by ultrasound treatment. The absorbance at 414 nm and 620 nm of the extracts is determined in micro titre plates. 620 nm is a reference wavelength and the A620 reading is subtracted from the A414 reading. The amount of blood in the extract corresponding to the subtracted reading is calculated from a standard curve created by known amounts of blood from wild type control mice, such as C57/BI6 mice. Parameters of the bleeding characteristics of the mice to be recorded are total blood loss, bleeding rate, bleeding time, 1 h, 2 h, 3 h, 4 h, 24 h and 48 h survival. Cumulative blood loss is calculated by summing up the amounts of blood for each time period. Data for the animals of a group are averaged and plotted against bleeding time. At each time point data sets for treatment and vehicle control groups are analysed by Student's t-test for statistical significance.
Parameters quantified were total blood loss, bleeding time, bleeding rate and survival.
Blood loss was monitored in the tail clip assay as described in the specific description for 62 minutes after tail clip. FVIII−/− mice were administered with rFVIII (Advate®) at 25, 50 or 100 U/kg i.v. or with vehicle alone. […] As a control, C57BI/6 mice were administered vehicle alone.
Vehicle was 5% DMSO, 5% Cremophor EL, 0.05% Tween 80 in water for injection.

[4] = in vitro; settings: mouse, pH 7.4
[5] = system: FIX−/− mice; experiment: Tail clip assay in FIX−/− mice (blood loss, survival); assay type: in vivo, mouse

mouse serum albumin, sequence (P07724 25-608): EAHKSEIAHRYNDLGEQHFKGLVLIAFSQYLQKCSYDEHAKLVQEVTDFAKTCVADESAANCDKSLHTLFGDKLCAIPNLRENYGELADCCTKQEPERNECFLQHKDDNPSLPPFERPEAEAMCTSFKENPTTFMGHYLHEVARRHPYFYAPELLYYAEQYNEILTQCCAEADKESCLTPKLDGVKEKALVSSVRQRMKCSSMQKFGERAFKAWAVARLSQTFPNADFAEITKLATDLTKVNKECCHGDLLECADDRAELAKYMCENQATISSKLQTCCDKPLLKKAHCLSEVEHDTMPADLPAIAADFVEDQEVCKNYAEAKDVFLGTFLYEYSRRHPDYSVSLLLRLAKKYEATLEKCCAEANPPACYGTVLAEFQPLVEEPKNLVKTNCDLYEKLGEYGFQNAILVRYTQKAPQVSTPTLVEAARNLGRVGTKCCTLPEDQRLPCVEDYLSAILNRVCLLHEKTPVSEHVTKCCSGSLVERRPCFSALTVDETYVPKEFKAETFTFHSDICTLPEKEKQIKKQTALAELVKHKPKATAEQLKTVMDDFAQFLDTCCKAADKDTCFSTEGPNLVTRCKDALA

## Ac-RMKFDVWDLYFEIVW-NH2 [Peptide A01]
[1]
  recovery at 6 h, 5 μM: > 88.6%
[1]; plasma
  fraction unbound at 6 h, 5 μM: < 0.017
[2]
  fraction unbound at 6 h, 5 μM: < 0.003
  recovery at 6 h, 5 μM: > 103%
[3]; 20 mg/kg i.v.
  Survival vs vehicle control: statistically significant longer survival
[3]; 20 mg/kg i.v. five minutes before tail clip, p<0.05 at most time points
  Mean volume of blood loss following tail clip compared to vehicle control: significantly different
[3]; 20 mg/kg i.v., at 52 and 62 minutes after tail clip
  p of difference in mean blood loss vs vehicle: < 0.01
[3]; FVIII−/− mice, 20 mg/kg i.v. five minutes before tail clip, 2 hours (Table 26)
  Survival (%) 2 hours: 56%
[3]; FVIII−/− mice, 20 mg/kg i.v. five minutes before tail clip, 4 hours (Table 26)
  Survival (%) 4 hours: 25%
[3]; FVIII−/− mice, 20 mg/kg i.v. five minutes before tail clip, 24 hours (Table 26)
  Survival (%) 24 hours: 6%
[3]; FVIII−/− mice, 20 mg/kg i.v. five minutes before tail clip, 48 hours (Table 26)
  Survival (%) 48 hours: 0%
[3]; FVIII−/− mice, Exp 1, 20 mg/kg i.v., tail clip, 2 hours
  Survival (%) 2 hours: 56%
[3]; FVIII−/− mice, Exp 1, 20 mg/kg i.v., tail clip
  Survival (%) 3 hours: 44%
[3]; FVIII−/− mice, Exp 1, 20 mg/kg i.v., tail clip, 4 hours
  Survival (%) 4 hours: 25%
[3]; FVIII−/− mice, Exp 1, 20 mg/kg i.v., tail clip, 24 hours
  Survival (%) 24 hours: 6%
[3]; FVIII−/− mice, Exp 2 (repeat), 20 mg/kg i.v., tail clip, 2 hours
  Survival (%) 2 hours: 63%
[3]; FVIII−/− mice, Exp 2 (repeat), 20 mg/kg i.v., tail clip
  Survival (%) 3 hours: 38%
[3]; FVIII−/− mice, Exp 2 (repeat), 20 mg/kg i.v., tail clip, 4 hours
  Survival (%) 4 hours: 31%
[3]; FVIII−/− mice, Exp 2 (repeat), 20 mg/kg i.v., tail clip, 24 hours
  Survival (%) 24 hours: 13%
[3]; FVIII−/− mice, female, 20 mg/kg i.p., 0.5 cm tail clip
  Total blood loss (% of Vehicle): 72 % of Vehicle
[3]; FVIII−/− mice, female, 20 mg/kg i.p., 0.5 cm tail clip, 2 hours
  Survival 2 hours (%): 75%
[3]; FVIII−/− mice, female, 20 mg/kg i.p., 0.5 cm tail clip, 4 hours
  Survival 4 hours (%): 25%
[3]; FVIII−/− mice, female, 20 mg/kg i.p., 0.5 cm tail clip, 24 hours
  Survival 24 hours (%): 25%
[3]; FVIII−/− mice, female, 20 mg/kg i.v., 1 cm tail clip, 2 hours
  Survival 2 hours (%): 80%
[3]; FVIII−/− mice, female, 20 mg/kg i.v., 1 cm tail clip, 24 hours
  Survival 24 hours (%): 10%
[3]; FVIII−/− mice, male, 20 mg/kg i.p., 0.5 cm tail clip
  Total blood loss (% of Vehicle): 83 % of Vehicle
[3]; FVIII−/− mice, male, 20 mg/kg i.p., 0.5 cm tail clip, 2 hours
  Survival 2 hours (%): 38%
[3]; FVIII−/− mice, male, 20 mg/kg i.p., 0.5 cm tail clip, 4 hours
  Survival 4 hours (%): 25%
[3]; FVIII−/− mice, male, 20 mg/kg i.p., 0.5 cm tail clip, 24 hours
  Survival 24 hours (%): 25%
[3]; FVIII−/− mice, male, 20 mg/kg i.v., 1 cm tail clip, 2 hours
  Survival 2 hours (%): 20%
[3]; FVIII−/− mice, male, 20 mg/kg i.v., 1 cm tail clip, 24 hours
  Survival 24 hours (%): 0%
[3]; conclusion
  Compensation for lack of FVIII (reducing blood loss, increasing survival following tail clip): at least partially compensate for the lack of FVIII
[3]; i.v., tail clip 1 cm
  Gender effect on efficacy: more effective in female than male mice
[3]; male mice, 20 mg/kg i.p., 0.5 cm tail clip
  Difference in survival curves vs vehicle: no statistically significant difference
[3]; repeat experiment
  Bleeding and survival in two independently performed experiments: bleed less and survive longer
[3]; summary
  Activity in the tail clip assay: possessing activity
[4]
  recovery at 6 h, 5 μM: > 73.3%
[4]; plasma
  fraction unbound at 6 h, 5 μM: < 0.008
[5]; 20 mg/kg i.v.
  Survival vs vehicle alone: no significant difference
[5]; 20 mg/kg i.v. five minutes before tail clip, any time points
  Mean volume of blood loss following tail clip compared to vehicle control: not significantly different
[5]; conclusion
  Effect in FIX−/− mice: no effect
